In PMC12656849 (Viruses, 2025):
Counter-ions that a name gives are not always drawn.

Tests used:
MPXV H1 [1] = target: T1, MPXV H1 (Monkeypox virus, UniProt A0A7H0DN78); experiment: biochemical
VARV H1 = conditions: cited from earlier work
MPXV = conditions: cited from earlier work
MPXV H1 [2] = target: T1, MPXV H1; format: biochemical; conditions: read-out: Michaelis constant (Km); pH 6.5
mpox = conditions: in vivo; cited from earlier work

T1 sequence (A0A7H0DN78 whole entry, looked up): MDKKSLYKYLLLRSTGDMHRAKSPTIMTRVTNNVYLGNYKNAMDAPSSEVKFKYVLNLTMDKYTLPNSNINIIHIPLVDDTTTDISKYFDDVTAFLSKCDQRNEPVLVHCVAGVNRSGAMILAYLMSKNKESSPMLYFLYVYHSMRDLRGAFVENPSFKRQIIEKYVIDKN

SMILES | IC50 (MPXV H1 [1]) | cytotoxicity (in words) (HeLa cells) | also measured
CC(C)(C)C(=O)Nc1ccc2c(c1)C(=O)C(=O)c1ccccc1-2 [Compound 35, SF1670] | 154 ± 12 nM |  | 
N#CSc1cc(SC#N)c(N)nc1N [Compound 41, PR619] | 176 ± 7 nM | particularly low cytotoxicity | 
CC1(C)CCC2=C(O1)c1ccccc1C(=O)C2=O [Compound 45, Beta-lapachone] | 348 ± 17 nM | particularly low cytotoxicity | 
O=C1C=C(Cl)C(=O)c2ccccc21 [Compound 47, 2-Chloro-1,4-naphthoquinone] | 837 ± 56 nM | particularly low cytotoxicity | 
Cl.Oc1cccc(O)n1 [Compound 57, 2,6-Dihydroxypyridine hydrochloride] | 911 ± 64 nM | particularly low cytotoxicity | 
O=C1C(=O)c2ncccc2-c2cccnc21 [Compound 59, Phanquinone] | 241 ± 7 nM |  | 
CN(C)CCNc1nc2cc(O)ccc2c2c1C(=O)c1ccccc1-2 [Compound 68, TAS-103 (dihydrochloride)] | 865 ± 16 nM | substantial cytotoxicity | 
CC(=O)c1cc2c(o1)C(=O)c1ccccc1C2=O [Compound 75, Napabucasin] | 957 ± 40 nM | substantial cytotoxicity | 
CC(C)NC1=CC=CNC1N1CCN(C(=O)c2cc3cc(NS(C)(=O)=O)ccc3[nH]2)CC1 (stereo not shown) [Compound 88, Delavirdine (mesylate)] | 987 ± 48 nM | particularly low cytotoxicity | 
Cn1cccc1/C=C1\C(=O)NC(=O)c2ccccc21 [Compound 89, BYK204165] | 794 ± 46 nM | particularly low cytotoxicity | 
Cc1coc2c1C(=O)C(=O)c1c-2ccc2c1CCCC2(C)C [Compound 106, Tanshinone IIA] | 531 ± 19 nM |  | 
COCCn1c2c([n+](Cc3cnccn3)c1C)C(=O)c1ccccc1C2=O [Compound 108, YM155] | 826 ± 65 nM | substantial cytotoxicity | 
CC1=CC(=O)c2c(O)cccc2C1=O [Compound 109, Plumbagin] | 874 ± 24 nM | particularly low cytotoxicity | 
Cc1c(S(=O)(=O)O)oc2c1C(=O)C(=O)c1c-2ccc2c1CCCC2(C)C [Compound 111, Tanshinone IIA sulfonate sodium] | 287 ± 10 nM |  | 
COc1cc2c3c(c1OC)-c1ccccc1C[C@H]3N(C)CC2 [Compound 112, Nuciferine] | 752 ± 9 nM |  | 
Nc1cc(N)c(N)cc1N [Compound 118, 1,2,4,5-Benzenetetramine tetrahydrochloride] | 333 ± 30 nM |  | 
COc1ccc2c(c1OC)CC1c3c(cc4c(c3-2)OCO4)CCN1C (stereo not shown) [Compound 122, Crebanine] | 229 ± 21 nM |  | 
COc1cc2c3c(cc4ccccc4c3c1OC)N(C)CC2 [Compound 123, Dehydronuciferine] | 356 ± 25 nM | particularly low cytotoxicity | 
CC(C)(c1ccc(NS(=O)(=O)C(F)(F)F)cc1)c1ccc(C(C)(C)c2ccc(NS(=O)(=O)C(F)(F)F)cc2)cc1 [PTP inhibitor IV] | 18900 nM |  | potency of VARV H1 inhibition (VARV H1): low-micromolar potency
OC(c1cc(C(F)(F)F)nc2c(C(F)(F)F)cccc12)C1CCCCN1 (stereo not shown) [mefloquine] |  |  | inhibition of MPXV (MPXV): inhibit MPXV
O=[N+]([O-])c1ccc(OP(=O)(O)O)cc1 [pNPP, p-nitrophenyl phosphate] |  |  | Km (MPXV H1 [2]): 1500 µM
O=C(NN1C(=O)[C@@H]2[C@@H]3C=C[C@@H]([C@H]4C[C@@H]34)[C@@H]2C1=O)c1ccc(C(F)(F)F)cc1 [tecovirimat] |  |  | mpox symptom duration compared with placebo (mpox): did not shorten
